Data on 5 molecules can be found in patent US20100168125A1, “INDOLIZINES AND AZA-ANALOG DERIVATIVES THEREOF AS CNS ACTIVE COMPOUNDS” (priority 2007, published 2010).

Assay [1] addresses T1, human D3 receptor (Homo sapiens, UniProt P35462).
T1 construct: expressed in transfected cells; host or cells: Chinese hamster ovary (CHO) cells, membranes
In words: radioligand binding with [^3H]spiperone, D3. The conditions noted are these: ratio of Ki values. The gist of the method:
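Membranes from CHO cell lines expressing each human receptor subtype incubated with [^3H]spiperone. Test compounds spanned subnanomolar to micromolar concentrations in competition format.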

The target in another assay is T2, human D2long receptor (Homo sapiens, UniProt P14416).
T2 construct: expressed in transfected cells; host or cells: Chinese hamster ovary (CHO) cells, membranes
T2 sequence (P14416 whole entry): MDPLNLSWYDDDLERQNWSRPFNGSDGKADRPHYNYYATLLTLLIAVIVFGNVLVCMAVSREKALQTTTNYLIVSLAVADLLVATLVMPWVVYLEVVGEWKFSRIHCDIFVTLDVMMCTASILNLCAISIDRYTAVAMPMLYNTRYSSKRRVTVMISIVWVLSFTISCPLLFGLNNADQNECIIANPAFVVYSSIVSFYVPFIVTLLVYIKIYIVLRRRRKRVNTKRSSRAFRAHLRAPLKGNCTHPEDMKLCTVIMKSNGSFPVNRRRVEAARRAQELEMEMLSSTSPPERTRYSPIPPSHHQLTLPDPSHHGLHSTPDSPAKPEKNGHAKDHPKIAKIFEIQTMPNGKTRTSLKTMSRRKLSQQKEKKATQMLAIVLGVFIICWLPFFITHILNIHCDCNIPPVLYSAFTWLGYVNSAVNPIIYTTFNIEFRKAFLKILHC
The conditions noted are these: published derivatives with carboxamide alkylene spacer; read-out: Ki D2lo; cited from earlier work.

For a further assay, the target named is T3, human D2short receptor (Homo sapiens, UniProt P14416).
T3 construct: expressed in transfected cells; host or cells: Chinese hamster ovary (CHO) cells, membranes
T3 sequence (P14416 1-414 isoform P14416-2): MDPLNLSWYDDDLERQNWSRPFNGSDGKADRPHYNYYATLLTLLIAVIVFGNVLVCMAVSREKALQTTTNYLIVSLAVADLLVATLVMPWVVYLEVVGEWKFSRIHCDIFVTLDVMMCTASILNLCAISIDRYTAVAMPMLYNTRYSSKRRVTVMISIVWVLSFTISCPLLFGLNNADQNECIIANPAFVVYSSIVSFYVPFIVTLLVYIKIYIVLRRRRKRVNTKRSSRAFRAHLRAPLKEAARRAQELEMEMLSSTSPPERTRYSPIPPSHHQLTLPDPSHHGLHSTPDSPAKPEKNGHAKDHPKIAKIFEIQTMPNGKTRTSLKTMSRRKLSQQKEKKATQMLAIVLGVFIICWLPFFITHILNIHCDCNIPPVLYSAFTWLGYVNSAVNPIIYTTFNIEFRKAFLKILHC
Conditions: published derivatives with carboxamide alkylene spacer; read-out: Ki D2sh; cited from earlier work.

Assay [2] concerns the target T1, human D3 receptor. The conditions noted are these: published derivatives with carboxamide alkylene spacer; cited from earlier work.
A further assay has as its target T4, human D4.4 receptor (Homo sapiens, UniProt P21917).
T4 construct: expressed in transfected cells; host or cells: Chinese hamster ovary (CHO) cells, membranes
T4 sequence (P21917 1-419): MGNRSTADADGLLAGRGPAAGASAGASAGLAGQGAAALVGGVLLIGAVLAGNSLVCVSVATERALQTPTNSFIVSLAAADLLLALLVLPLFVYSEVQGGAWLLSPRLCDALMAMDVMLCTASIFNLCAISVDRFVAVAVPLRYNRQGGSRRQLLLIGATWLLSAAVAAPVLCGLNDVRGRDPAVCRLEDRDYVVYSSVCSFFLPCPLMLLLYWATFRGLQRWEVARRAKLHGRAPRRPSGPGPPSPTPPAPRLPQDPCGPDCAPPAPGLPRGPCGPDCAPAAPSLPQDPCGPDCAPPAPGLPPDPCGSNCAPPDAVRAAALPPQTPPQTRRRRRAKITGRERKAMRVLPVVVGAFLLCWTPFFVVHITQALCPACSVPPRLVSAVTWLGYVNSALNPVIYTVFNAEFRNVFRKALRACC
The conditions noted are these: published derivatives with carboxamide alkylene spacer; cited from earlier work.

For another assay, the target named is T5, 5-HT1A receptor (Sus scrofa, UniProt A0A4X1UTF5).
T5 construct: membrane preparations from porcine cortical material; from tissue; host or cells: porcine cerebral cortex membranes
T5 sequence (A0A4X1UTF5 1-422): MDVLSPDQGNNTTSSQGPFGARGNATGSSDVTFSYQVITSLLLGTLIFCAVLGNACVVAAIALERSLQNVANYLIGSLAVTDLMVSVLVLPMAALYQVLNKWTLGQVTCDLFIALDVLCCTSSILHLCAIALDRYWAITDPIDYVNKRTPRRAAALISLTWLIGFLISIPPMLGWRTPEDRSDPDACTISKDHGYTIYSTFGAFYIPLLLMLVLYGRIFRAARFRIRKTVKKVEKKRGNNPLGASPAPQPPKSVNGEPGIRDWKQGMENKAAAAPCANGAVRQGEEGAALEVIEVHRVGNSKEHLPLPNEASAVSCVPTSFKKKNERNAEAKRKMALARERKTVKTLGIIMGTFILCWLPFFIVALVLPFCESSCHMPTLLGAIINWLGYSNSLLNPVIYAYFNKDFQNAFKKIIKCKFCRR
The conditions noted are these: published derivatives with carboxamide alkylene spacer; cited from earlier work.

A further assay deals with T6, 5-HT2 receptor (Sus scrofa, UniProt P50129).
T6 construct: membrane preparations from porcine cortical material; from tissue; host or cells: porcine cerebral cortex membranes
T6 sequence (P50129 whole entry): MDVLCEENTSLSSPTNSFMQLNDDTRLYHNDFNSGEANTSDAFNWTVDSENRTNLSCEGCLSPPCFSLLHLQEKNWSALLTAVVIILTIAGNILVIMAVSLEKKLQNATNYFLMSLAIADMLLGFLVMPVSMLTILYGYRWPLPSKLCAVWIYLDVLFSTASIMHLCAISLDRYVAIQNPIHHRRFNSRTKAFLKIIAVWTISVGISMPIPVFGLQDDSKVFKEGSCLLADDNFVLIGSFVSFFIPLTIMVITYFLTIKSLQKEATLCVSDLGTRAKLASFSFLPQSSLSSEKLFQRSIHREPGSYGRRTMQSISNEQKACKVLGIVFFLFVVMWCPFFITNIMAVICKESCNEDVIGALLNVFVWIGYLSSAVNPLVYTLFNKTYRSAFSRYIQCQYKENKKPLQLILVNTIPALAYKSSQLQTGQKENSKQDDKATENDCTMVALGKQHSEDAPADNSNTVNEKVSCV
Conditions: published derivatives with carboxamide alkylene spacer; cited from earlier work.

T1 sequence (P35462 whole entry): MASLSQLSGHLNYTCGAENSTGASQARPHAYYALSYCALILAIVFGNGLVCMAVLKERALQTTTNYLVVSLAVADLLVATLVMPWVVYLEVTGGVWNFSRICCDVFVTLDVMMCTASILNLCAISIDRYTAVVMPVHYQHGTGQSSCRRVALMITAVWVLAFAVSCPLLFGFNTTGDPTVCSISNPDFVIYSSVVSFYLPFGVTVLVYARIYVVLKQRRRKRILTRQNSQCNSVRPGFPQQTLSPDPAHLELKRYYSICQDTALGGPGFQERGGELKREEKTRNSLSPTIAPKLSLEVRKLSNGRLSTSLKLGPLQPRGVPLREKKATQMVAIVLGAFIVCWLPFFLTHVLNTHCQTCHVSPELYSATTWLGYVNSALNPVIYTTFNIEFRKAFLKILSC

For orientation: Ki means the equilibrium dissociation constant of an inhibitor or competing ligand from its target. Regarding `O=C(NCCCCN1CCN(c2cccc(Cl)c2Cl)CC1)c1cc2ccccn2n1` [Example B8], the “ratio D2lo/D3” value on human D3 receptor [1] was 180. In addition, the inhibition constant (Ki) on human D2long receptor is 66 nM; at human D2short receptor, 44 nM; at human D3 receptor [2] it was 0.36 nM; at human D4.4 receptor, 380 nM; on 5-HT1A receptor, 53 nM; at 5-HT2 receptor it was 82 nM.
For `O=C(NCCCCN1CCN(c2cccc(Cl)c2Cl)CC1)c1ccn2nccc2c1` [Example B26], the “ratio D2lo/D3” value on human D3 receptor [1] is recorded as 340. Moreover, the Ki was 86 nM at human D2long receptor; 51 nM on human D2short receptor; 0.25 nM on human D3 receptor [2]; 210 nM on human D4.4 receptor; 28 nM on 5-HT1A receptor; 44 nM at 5-HT2 receptor.
Regarding `COc1ccccc1N1CCN(CCCCNC(=O)c2ccn3ncc(Br)c3c2)CC1` [Example B28], on human D3 receptor [1], the “ratio D2lo/D3” value is 15. Further, the Ki on human D2long receptor is 180 nM; at human D2short receptor, 89 nM; at human D3 receptor [2] it was 12 nM; at human D4.4 receptor, 59 nM; on 5-HT1A receptor, 6.4 nM; on 5-HT2 receptor, 240 nM.
For the molecule `COc1ccccc1N1CCN(CCCCNC(=O)c2ccn3ncc(Cl)c3c2)CC1` [Example B29], the “ratio D2lo/D3” value on human D3 receptor [1] was determined as 16. For the same molecule, the Ki was 220 nM at human D2long receptor; 96 nM on human D2short receptor; 14 nM at human D3 receptor [2]; 77 nM on human D4.4 receptor; 13 nM at 5-HT1A receptor; 420 nM at 5-HT2 receptor.
Turning to `COc1ccccc1N1CCN(CCCCNC(=O)c2ccc3nccn3c2)CC1` [Example B93], the “ratio D2lo/D3” value at human D3 receptor [1] was 11. In addition, the Ki on human D2long receptor was 82 nM; at human D2short receptor it was 30 nM; at human D3 receptor [2] it was 7.8 nM; at human D4.4 receptor, 140 nM; on 5-HT1A receptor it was 12 nM; on 5-HT2 receptor, 950 nM.
